This assay has as its system mESC Bmi1-luciferase reporter, firefly/renilla ratio, 24 h. Briefly: Bmi1-luciferase reporter activators in mESC, dose response, esBAF inhibitor project, mouse embryonic stem cells, cherry-pick (AID 651717;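 also: luciferase knocked into Bmi1 locus with EF-1a renilla as cell number control; rising ratio signals esBAF inhibition which derepresses Bmi1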). (In general: A reporter such as luciferase makes a cellular process visible.)
As for `Fc1ccc(CSc2ccc(-c3cccs3)nn2)cc1`, the AC40 is 5.03 µM.

For `CCc1sc(C(=O)Nc2ccc3nc(C)sc3c2)cc1C`, the AC40 is 4.74 µM.

For the molecule `c1ccc(-c2ccc(-c3ccccc3)[nH]2)cc1`, the AC40 is 1.44 µM.

Take `O=C(C[C@@H]1CC[C@@H]2[C@H](COC[C@H](O)CN2C(=O)Nc2ccc(Cl)cc2)O1)NCC1CCCCC1`: the AC40 was 2.62 µM.

As for `Clc1ccc(-c2cnnc(-c3ccccn3)n2)cc1`, the AC40 is 1.79 µM.

For the molecule `COc1cc(Cl)ccc1OCc1cc(C(=O)N(C)Cc2cccc3cnccc23)no1`, the AC40 was 7.79 µM.

Regarding `COc1ccc(-c2nnn(Cc3ccccc3)n2)cc1`, the AC40 was 0.621 µM.

Consider `Cc1ccc2c(CN(C)Cc3cccc(F)c3)cc(=O)oc2c1`, for which the AC40 was 2.23 µM.

On to `Cc1ccc(NC(=O)CN2C(=O)N/C(=C/c3ccccc3OCc3cccc(C(=O)O)c3)C2=O)cc1`, for which the AC40 is 2.65 µM.

Consider `COc1ccc2c(c1OC)C(=O)OC2Nc1nc(-c2cc3cc(Br)ccc3oc2=O)cs1` (stereo unspecified), for which the AC40 was 1.25 µM.

On to `c1ccc2c(c1)Nc1cc3ccccc3cc1O2`, for which the AC40 is 4.66 µM.

On to `Cc1ccc2sc(NC(=O)C3CC3)nc2c1C`, for which the AC40 was 6.72 µM.

For the molecule `Cc1cccc(C)c1OCc1cc(C(=O)N2CCC(C3CCCCC3)C2)no1` (stereo unspecified), the AC40 was 4.72 µM.

For `CN(C)c1ccc(C=NN2CCCCCC2)cc1`, the AC40 is less than 0.26 µM.

For `CC(c1ccccc1)c1nnc(NC(=O)Nc2ccccc2F)s1` (stereo unspecified), the AC40 is 6.51 µM.

Take `Cc1ccc(-c2nnn(CC(=O)N(Cc3cccs3)C(C(=O)NC3CCCC3)c3ccncc3)n2)cc1` (stereo unspecified): the AC40 is 34.5 µM.

Turning to `CCc1c(C(=O)OCc2ccccc2)[nH]c(C)c1C`, the AC40 was 2.03 µM.

As to `Nc1nc(SCc2ccccc2)c2ncn(C3CCCCC3)c2n1`, the AC40 was 2.09 µM.

In the case of `COc1ccc(NC(=O)Nc2cccc(C)n2)cc1`, the AC40 was 3.45 µM.

As to `COc1ccccc1Cc1c(-c2ccc(C)cc2)nc2ccc(Cl)cn12`, the AC40 is 1.18 µM.

In the case of `Cc1sc(NC(=O)C2CCCCC2C(=O)O)c(C(N)=O)c1-c1ccc(C(C)C)cc1` (stereo unspecified), the AC40 is 6.81 µM.

On to `Cc1ccc(C)c(N2CCN(C(=O)CCc3nc(-c4ccccc4Br)no3)CC2)c1`, for which the AC40 is 15.8 µM.

For the molecule `COc1ccc(C(=O)Nc2ccc3nc(C)c(C)nc3c2)cc1`, the AC40 is 8.3 µM.

Consider `O=C(NCCc1ccccc1)c1cccc(NC(=O)C2CCC2)c1`, for which the AC40 was 8.75 µM.

Regarding `CC(=O)c1ccc(OCc2ccccc2)c(C)c1O`, the AC40 was 9.35 µM.

As for `CC(=O)Nc1ccc2nc(SCC(=O)Nc3ccc(N4CCOCC4)c(Cl)c3)sc2c1`, the AC40 is 3.57 µM.

For `O=C(CC1CC2CCC1C2)NC1CCCCCCC1` (stereo unspecified), the AC40 was 9.68 µM.

As for `COc1ccc2nc(C(c3ccc(C)cc3)n3c(-c4ccccc4Br)nc4ccccc43)[nH]c2c1` (stereo unspecified), the AC40 was 0.494 µM.

In the case of `O=C(Nc1ccncc1)c1ccc2ncsc2c1`, the AC40 is 22.8 µM.

Consider `Cc1ccc(C(=O)Nc2ccc3c(c2)OCO3)cc1S(=O)(=O)N1CCCCC1`, for which the AC40 is 1.69 µM.

In the case of `Cn1cccc1C(=O)NC1CCCCCC1`, the AC40 is 3.74 µM.

As for `c1ccc(Cn2c(-c3cncs3)nc3ccccc32)cc1`, the AC40 was 11.8 µM.

In the case of `O=c1c2ccccc2oc2cc(-c3ccc4cc[nH]c4c3)ccc12`, the AC40 is 1.46 µM.

Turning to `Cc1ccc(CN2CC(C(=O)Nc3cc(C)ccn3)CC2=O)cc1` (stereo unspecified), the AC40 is 1.48 µM.

For `CCCc1cc(C(=O)Nc2cc(Br)ccc2O)no1`, the AC40 was 8.53 µM.

`Nc1cc2c(cc1Cl)-c1ccccc1C2`: the AC40 was 6.53 µM.

`O=C(Cc1c(O)c2ccccc2oc1=O)c1ccc(F)cc1`: the AC40 is 2 µM.

`CN(C)c1ccc(C=Cc2nccc3ccccc23)cc1`: the AC40 is 1.65 µM.

With `Cc1ccc(C(=O)Cc2ccccc2)c(O)c1`, the AC40 was 6.34 µM.

Regarding `COc1ccc(OCc2cc(C(=O)NC(C)c3csc(C)n3)no2)c(Cl)c1` (stereo unspecified), the AC40 is 4.18 µM.

In the case of `COC(=O)CN(C)C(=O)c1ccc2nc(Cc3cccc(Cl)c3)oc2c1`, the AC40 is 2.4 µM.

Turning to `COc1cccc(NC(=O)C(=O)NCCC2CCCCN2S(=O)(=O)c2ccccc2)c1` (stereo unspecified), the AC40 was 2.93 µM.

For `CC(C)(C)C(=O)N1CCN(c2nc3ccc(Br)cc3s2)CC1`, the AC40 is 1.53 µM.

`CCC(C)NC(=O)c1cc(-c2ccccc2O)on1` (stereo unspecified): the AC40 is 11.1 µM.

Regarding `O=C(NNC(=O)c1cccc2ccccc12)c1ccc2c(c1)OCO2`, the AC40 is 17.8 µM.

`COc1cc2ccccc2cc1C(=O)NC1CCC(C)CC1` (stereo unspecified): the AC40 is 8.67 µM.

For `c1ccc(Nc2ccc3ccccc3c2)cc1`, the AC40 is 3.83 µM.

`CCCCc1nc2cc(C(=O)N3CCCCC3C(=O)OC)ccc2o1` (stereo unspecified): the AC40 is 13 µM.

In the case of `COc1ccc(C(=O)Nc2ccc(C3CC3(Cl)Cl)cc2)cc1` (stereo unspecified), the AC40 was 7.09 µM.

With `O=C(O)c1ccc(N/N=C/c2cccc3nccnc23)cc1`, the AC40 was 4.04 µM.

For the molecule `CCc1c(C)sc(NC(=O)c2cccs2)c1C(N)=O`, the AC40 is 2.66 µM.

As for `Nc1nc(-c2ccc(Oc3ccccc3)cc2)cs1`, the AC40 was 7.87 µM.

Take `CCCCNc1ccc2c(c1)C1CC2CCN1C(=O)OCc1ccccc1` (stereo unspecified): the AC40 was 4.73 µM.

For `CCCC(=O)Nc1ccc2c(c1)C(=O)N(C)C[C@H](OC)[C@@H](C)CN(Cc1ccc(-c3ccccn3)cc1)[C@@H](C)CO2`, the AC40 was 8.13 µM.

Turning to `O=C(NC1CCCCC1)c1ccc2ccccc2c1O`, the AC40 is 1.27 µM.

With `C/C(=N\OC(=O)NC(C)C)c1sc(-c2ccccc2)nc1C`, the AC40 is 7.63 µM.

With `CC(=O)N(/N=C1\Sc2ccccc2C1=O)c1ccccc1`, the AC40 was less than 0.26 µM.

With `Cc1cc(C(=O)Nc2sc(C)c(-c3ccc(F)cc3)c2C(N)=O)no1`, the AC40 was 0.612 µM.

For the molecule `Cc1ccc(NC(=O)C2CCCN(C(=O)c3ccc(Cl)cc3)C2)cc1C` (stereo unspecified), the AC40 was 6.09 µM.

Consider `CC(=O)c1ccc(NC(=O)c2cc(C)nc3ccccc23)cc1`, for which the AC40 was 3.55 µM.

Regarding `COc1cccc(N2CCN(C(=O)c3ccc4nc(N5CCCCC5)sc4c3)CC2)c1`, the AC40 was 5.88 µM.

As to `Cc1ccc(C(=O)NNC(=O)c2ccc3ccccc3c2)cc1`, the AC40 is 7.86 µM.

For `COc1cc2[nH]c(C(=O)N3CCc4ccccc43)cc2c(OC)c1OC`, the AC40 was 2.77 µM.

For the molecule `OC(c1cccc(F)c1)c1ncc(-c2ccc3ccccc3c2)[nH]1` (stereo unspecified), the AC40 was 9.76 µM.

`N#Cc1nc(COc2ccccc2)oc1N1CCCCC1`: the AC40 is 15.6 µM.

As to `COc1ccc(CNC(=O)c2ccc(-c3ccccc3)cc2)cc1`, the AC40 is 6.89 µM.

Regarding `CCCNC(=O)Nc1ccc2c(c1)C(=O)N(C)C[C@H](OC)[C@@H](C)CN(Cc1ccc(-c3ccccn3)cc1)[C@@H](C)CO2`, the AC40 was 14.1 µM.

Turning to `COc1ccc2c(=O)c3ccccc3oc2c1`, the AC40 was 4.7 µM.

As to `CCS(=O)(=O)n1nc(-c2ccc(OC)cc2)nc1SC`, the AC40 was 5.54 µM.

In the case of `COc1ccc(Cc2nc3ccc(C(=O)NCCCSC)cc3o2)cc1OC`, the AC40 was 4.92 µM.

With `COc1ccc(Cc2c(-c3ccc(F)cc3)nc3ccc(Br)cn23)c(C)c1`, the AC40 is 3.51 µM.

Turning to `Cc1ccc(NC(=O)CN(C)S(=O)(=O)c2cccs2)cc1C`, the AC40 was 2.98 µM.

With `O=C(Nc1cccc2ccccc12)OCc1ccccc1`, the AC40 was 3.96 µM.

With `Cc1ccc(OCn2c(=O)sc3ccccc32)cc1`, the AC40 was 6.12 µM.

As for `Cc1c(C(=O)NCc2cccnc2)sc2nc(-c3ccc(F)cc3)cn12`, the AC40 is 12.2 µM.

As for `Cc1cc(Cl)c(O)c(-n2nc3ccccc3n2)c1`, the AC40 is 5.74 µM.

With `O=C(Nc1ccccc1)c1cc(C2CCCN(C(=O)CCc3ccccc3)C2)on1` (stereo unspecified), the AC40 was 5.03 µM.

With `CO[C@H]1CN(C)C(=O)c2cc(NC(=O)Nc3ccc4c(c3)OCO4)ccc2OC[C@H](C)NC[C@@H]1C`, the AC40 was 13.2 µM.

For the molecule `O=C(Nc1cccnc1Cl)c1cc(-c2ccccc2O)on1`, the AC40 is 1.09 µM.

Turning to `O=C(Nc1ccccn1)c1ccc(Cl)c(S(=O)(=O)N2CCCCCC2)c1`, the AC40 is 10.4 µM.

In the case of `COC(=O)c1ccc(COC(=O)c2ccc(SC)cc2OC)cc1`, the AC40 is 8.51 µM.

As to `COc1ccc(Nc2ncnc3sc(C)cc23)cc1`, the AC40 is 5.43 µM.

Turning to `COc1ccc(-c2csc(C(O)c3ccccc3)n2)cc1` (stereo unspecified), the AC40 was 5.06 µM.

Take `O=C(Nc1cccc(-c2nc3ccccc3s2)c1)c1cc(-n2cnnc2)ccc1Cl`: the AC40 is 7.62 µM.

As to `COc1cccc(NC(=O)c2ccc3c(c2)CCN3S(C)(=O)=O)c1`, the AC40 is 7.43 µM.

For the molecule `O=C(Nc1ccc(Oc2cccnc2)cc1)c1ccccc1F`, the AC40 was 12.7 µM.

Regarding `Cc1nc(Nc2ccccc2)sc1C(=O)c1ccc(F)cc1`, the AC40 is 3.93 µM.

In the case of `COc1ccc(N2CCN(C(=O)c3ccc(Cn4c(=S)[nH]c5ccc(N6CCOCC6)cc5c4=O)cc3)CC2)cc1`, the AC40 was 6.15 µM.

As to `CCCCN(C(=O)CSc1nnc(Nc2ccc(C)c(C)c2)s1)c1c(N)n(Cc2ccccc2)c(=O)[nH]c1=O`, the AC40 is 12.4 µM.

Regarding `Cn1c2ccccc2c(=O)c2cc(C#Cc3ccsc3)ccc21`, the AC40 was 1.08 µM.

On to `CC(=O)Nc1nc(-c2ccc(-c3ccccc3)cc2)cs1`, for which the AC40 was 1.56 µM.

In the case of `COc1cccc(-c2cc(C(=O)NC3CCCCC3)no2)c1`, the AC40 is 1.71 µM.

For the molecule `Cc1ccc(C)c(OCc2nc3ccccc3[nH]2)c1`, the AC40 is 5.29 µM.

As for `COc1ccccc1NC(=O)Cn1nnc(-c2ccccc2NC(=O)c2cc3ccccc3oc2=O)n1`, the AC40 is 4.5 µM.

As to `Cc1ccc(-c2csc(NC(=O)c3ccno3)n2)cc1`, the AC40 is 8.99 µM.

On to `CS(=O)(=O)c1ccc2nc(NC(=O)c3ccccc3Br)sc2c1`, for which the AC40 was 6.16 µM.

With `c1ccc(-c2noc(CC3CCCCC3)n2)cc1`, the AC40 is 4.12 µM.

In the case of `Cn1cccc1-c1nc2ccc(NC(=O)c3cccs3)cc2[nH]1`, the AC40 is 11.7 µM.

With `O=c1c2ccccc2nnn1CSc1nnnn1-c1ccccc1`, the AC40 is 9.13 µM.

`Cc1cccc(Oc2ccc(Cl)cc2N)c1`: the AC40 was 5.77 µM.

Regarding `CCSc1ccc(/C(N)=N/OC(=O)c2cccs2)cn1`, the AC40 was 8.66 µM.

Regarding `N#Cc1ccc(Nc2nc(-c3ccccc3)cs2)cc1`, the AC40 is 3.97 µM.

Consider `c1ccc(CCNc2nc3ccccc3s2)cc1`, for which the AC40 is 3.14 µM.

On to `CCCC(=O)Nc1sc2c(c1C#N)CCCC2`, for which the AC40 was 19 µM.

`COc1ccc(-c2cc(C(=O)N3CCCC3)no2)cc1OC`: the AC40 is 7.36 µM.

Turning to `CN(C)c1ccc(CSc2ccccc2)cc1`, the AC40 is 2.77 µM.

The values above are taken from PubChem BioAssay AID651717 (Broad Institute, 2012).
